From PubChem BioAssay (NCI)
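48-hour exposure; five concentrations; linearly interpolated endpoints. At the GI50, growth is halved. The concentration for full growth arrest is given as TGI.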

Legend:
Assay in all cases: NCI-60 cell line screen, 48 h
[1] = system: OVCAR-8 ovarian
[2] = system: SR leukemia
[3] = system: SK-MEL-2 melanoma
[4] = system: OVCAR-3 ovarian
[5] = system: A498 renal
[6] = system: IGROV1 ovarian
[7] = system: UACC-257 melanoma
[8] = system: SNB-19 CNS
[9] = system: HS 578T breast
[10] = system: MDA-MB-231 breast
[11] = system: OVCAR-4 ovarian
[12] = system: SF-539 CNS
[13] = system: KM12 colon
[14] = system: NCI-H23 lung
[15] = system: NCI/ADR-RES ovarian
[16] = system: SW-620 colon
[17] = system: RPMI-8226 leukemia
[18] = system: MOLT-4 leukemia
[19] = system: LOX IMVI melanoma
[20] = system: SF-295 CNS
[21] = system: SF-268 CNS
[22] = system: MDA-MB-435
[23] = system: HCT-116 colon
[24] = system: NCI-H522 lung
[25] = system: HT29 colon
[26] = system: SNB-75 CNS
[27] = system: NCI-H460 lung
[28] = system: SK-MEL-28 melanoma
[29] = system: MDA-MB-468 breast
[30] = system: NCI-H226 lung

In the case of Cc1ccc(-c2ccc(SCC(=O)Nc3ccc(S(N)(=O)=O)cc3Br)nn2)cc1, the TGI [1] is reported as 29.6 µM, the GI50 [2] is reported as 60.4 µM and the TGI [2] is reported as greater than 100 µM. It also gave a GI50 [3] of 16.4 µM, a TGI [3] of 35.3 µM and a GI50 [4] of 16.9 µM. For the same compound, the TGI [4] was 32.4 µM, the GI50 [5] was 19.3 µM and the TGI [5] was 34.4 µM. The GI50 [6] was 15.9 µM, the TGI [6] was 31.3 µM and the GI50 [7] was 22.7 µM. It also gave a TGI [7] of 64.9 µM, a GI50 [8] of 11.3 µM and a TGI [8] of 23.3 µM. It also gave a GI50 [9] of 13.1 µM, a TGI [9] of 45.3 µM and a GI50 [10] of 4.19 µM. The TGI [10] was 15.5 µM, the GI50 [11] was 14.1 µM and the TGI [11] was 35 µM. The GI50 [12] was 10.4 µM, the TGI [12] was 22.2 µM and the GI50 [13] was 28.3 µM. The TGI [13] was greater than 100 µM, the GI50 [14] was 9.73 µM and the TGI [14] was 21.4 µM. For the same compound, the GI50 [15] was 9.62 µM, the TGI [15] was greater than 100 µM and the GI50 [16] was 27.2 µM. It also gave a TGI [16] greater than 100 µM, a GI50 [17] greater than 100 µM and a TGI [17] greater than 100 µM. It also gave a GI50 [18] greater than 100 µM, a TGI [18] greater than 100 µM and a GI50 [19] of 10.4 µM. The TGI [19] was 25.5 µM, the GI50 [20] was 10.5 µM and the TGI [20] was 22.3 µM. For the same compound, the GI50 [21] was 18.4 µM, the TGI [21] was 48.9 µM and the GI50 [22] was 25.4 µM. The TGI [22] was greater than 100 µM, the GI50 [23] was 3.67 µM and the TGI [23] was 17.2 µM. It also gave a GI50 [24] of 10.9 µM, a TGI [24] of 25.4 µM and a GI50 [25] of 7.6 µM. For the same compound, the TGI [25] was 68.8 µM, the GI50 [26] was 13.6 µM and the TGI [26] was 37.1 µM. For the same compound, the GI50 [27] was 10.3 µM, the TGI [27] was 29 µM and the GI50 [28] was 13.4 µM. The TGI [28] was 27 µM, the GI50 [29] was 15.3 µM and the TGI [29] was 36.4 µM. The GI50 [30] was 7.32 µM and the TGI [30] was 24.7 µM.
